Experimental data published in patent US20180133331A1, “Site-Specific DNA-Doxorubicin Conjugates Display Enhanced Cytotoxicity to Breast Cancer Cells” (priority 2014, published 2018).

Tested on: Salmon Sperm DNA
Assay: Dox transfer from DCH to salmon sperm DNA (fluorescence quenching, stability of Dox:hairpin conjugate)
Format: physicochemical
Settings: 100-fold excess spDNA (w/w), 37° C.
Description: Dox transfer from DCH: Samples of 2.5 μM (approximately 2 μg in 100 uL) DCH, doxorubicin, or hairpin+doxorubicin were prepared in DPBS with or without a 100-fold by weight (200 μg) excess of Salmon Sperm DNA and incubated at 37° C. Fluorescence intensity was determined by Typhoon-9210 variable mode imager with excitation set to 532 nm and the emission filter at 610 nm.
Stability of Dox:Hairpin Conjugate. It was hypothesized that covalent binding of Dox would allow for the Dox-conjugated hairpin to serve as a delivery vehicle with improved pharmacological properties and reduced systemic toxicities relative to conventional Dox. In order for the hairpin to act as an efficient delivery vehicle, Dox must remain stably bound under physiological conditions, but also undergo intracellular release and transfer to genomic DNA. […] Using the difference in fluorescence between hairpin-bound Dox and Dox intercalated into DNA, the half-life of the Dox-hairpin bond was measured. An assay was developed to quantify the transfer of Dox from the hairpin to genomic DNA under physiologic conditions. This assay is based on the difference in fluorescence of Dox in the context of the hairpin conjugate relative to genomic DNA. […] Reactions were incubated at 37° C. with fluorescence quenching measured over 48 h. […]

fluorescence quenching following addition of spDNA: fully quenched within one hour
SMILES: COc1cccc2c1C(=O)c1c(O)c3c(c(O)c1C2=O)C[C@@](O)(C(=O)CO)C[C@@H]3O[C@H]1C[C@H](N)[C@H](O)[C@H](C)O1 [Dox, Doxorubicin]
